According to US8383624B2 (Abbott Laboratories, priority 2009, dated 2013):

What follows are compounds tested against T1, Cdc7 (BEV coexpressed huCDC7/DBF4) (Homo sapiens, UniProt O00311) (assay: Cdc7 enzyme inhibition assay ([33P]-ATP, biotinylated peptide substrate, FlashPlate)). Conditions: Table 1; Ki from IC50 assuming ATP-competitive inhibition, apparent ATP Km 0.7 μM, 1 μM ATP.
T1 construct: made in house; host or cells: baculovirus expression vector (BEV) system
Type: biochemical
Protocol: Cdc7 (BEV coexpressed huCDC7/DBF4) is prepared internally. Cdc7 assays are conducted as follows with final concentrations as listed. In 384-well v-bottom polypropylene plates, 6 L compound (2% DMSO), is mixed with 6 µL of Cdc7 (2 μg/mL), and Jerini peptide substrate A-All (biotin-C6linker-TPSDSLIYDDGLS) (2 μM), followed by immediate initiation with 6 L […] (1 μM, 20 mCi/μmol) using a reaction buffer comprising 25 mM HEPES, pH 7.5, 1 mM DTT, 10 mM MgCl2, 100 μM Na3VO4, 0.075 mg/ml Triton X-100. Reactions are quenched after 1 hr by the addition of 90 L stop buffer (50 mM EDTA, 2M NaCl). 85 μL of the stopped reactions are transferred to 384-well streptavidin-coated plates (FlashPlate Plus, Perkin Elmer), incubated 30 minutes at room temperature and washed 3 times with 0.05% Tween-20/PBS using an ELX-405 automated plate washer (BioTek), and counted on a TopCount Scintillation Plate Reader (Packard). IC50 values are determined via non-linear regression fitting of enzyme inhibition data and corresponding Ki values are generated assuming ATP-competitive (equilibrium) inhibition and using the experimentally determined apparent ATP Km of 0.7 μM (as determined using the above assay condition, but varying ATP). Table 1 depicts enzyme inhibition data (Ki) for exemplary compounds. In Table 1, “A” represents a Ki of less than 10 nM, “B” represents a Ki of between 10 nM and 100 nM, and “C” represents a Ki of greater than 100 nM.
Table 2 depicts enzyme inhibition data (Ki) for examples 27-43 using the same assay as example 26. In Table 2, “A” represents a Ki of less than 10 nM, “B” represents a Ki of between 10 nM and 100 nM, and “C” represents a Ki of greater than 100 nM.

T1 sequence (O00311 whole entry): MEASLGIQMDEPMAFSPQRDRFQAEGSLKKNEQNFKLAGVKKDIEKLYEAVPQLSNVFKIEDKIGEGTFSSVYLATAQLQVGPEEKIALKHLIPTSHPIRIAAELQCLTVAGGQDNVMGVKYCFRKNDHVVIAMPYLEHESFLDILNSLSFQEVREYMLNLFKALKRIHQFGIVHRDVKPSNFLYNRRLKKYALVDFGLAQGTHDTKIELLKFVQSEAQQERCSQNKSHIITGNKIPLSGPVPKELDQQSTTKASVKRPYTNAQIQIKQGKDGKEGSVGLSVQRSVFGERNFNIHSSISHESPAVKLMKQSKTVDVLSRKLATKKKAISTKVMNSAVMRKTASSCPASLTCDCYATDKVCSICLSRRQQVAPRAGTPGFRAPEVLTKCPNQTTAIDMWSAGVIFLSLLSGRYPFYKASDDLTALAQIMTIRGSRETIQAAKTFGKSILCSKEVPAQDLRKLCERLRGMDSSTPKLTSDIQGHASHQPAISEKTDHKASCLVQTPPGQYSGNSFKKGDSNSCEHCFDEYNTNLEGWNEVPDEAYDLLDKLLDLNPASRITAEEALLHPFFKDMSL
T1 sequence (Q9UBU7 whole entry partner): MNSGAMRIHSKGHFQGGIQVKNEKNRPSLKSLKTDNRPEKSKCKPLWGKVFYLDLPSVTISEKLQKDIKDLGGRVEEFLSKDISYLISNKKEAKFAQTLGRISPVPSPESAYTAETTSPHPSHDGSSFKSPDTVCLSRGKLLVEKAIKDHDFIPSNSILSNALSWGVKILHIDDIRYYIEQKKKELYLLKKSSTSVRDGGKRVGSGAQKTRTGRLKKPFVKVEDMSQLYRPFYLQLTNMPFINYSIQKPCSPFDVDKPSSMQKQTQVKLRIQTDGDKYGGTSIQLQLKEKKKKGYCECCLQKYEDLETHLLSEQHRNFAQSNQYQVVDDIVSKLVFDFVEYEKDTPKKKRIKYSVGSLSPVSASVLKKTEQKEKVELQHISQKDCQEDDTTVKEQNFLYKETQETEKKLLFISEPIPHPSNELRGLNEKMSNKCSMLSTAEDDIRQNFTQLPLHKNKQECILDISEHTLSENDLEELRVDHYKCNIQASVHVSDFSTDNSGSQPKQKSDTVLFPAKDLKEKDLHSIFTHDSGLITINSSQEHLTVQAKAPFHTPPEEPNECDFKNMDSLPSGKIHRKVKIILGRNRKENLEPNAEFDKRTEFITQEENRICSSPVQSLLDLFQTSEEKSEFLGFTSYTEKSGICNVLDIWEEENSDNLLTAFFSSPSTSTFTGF

`O=C1CCC(C(=O)N[C@H]2CC[C@H](Nc3cc(-c4c[nH]c5nccnc45)cc(Cl)n3)CC2)N1` (relative stereo) [Example 20, N-(trans 4-(6-chloro-4-(5H-pyrrolo[3,2-b]pyrazin-7-yl)pyridin-2-ylamino)cyclohexyl)-5-oxopyrrolidine-2-carboxamide] and `O=C(N[C@H]1CC[C@H](Nc2cc(-c3c[nH]c4nccnc34)cc(Cl)n2)CC1)C1CC1` [Example 8, N-(trans-4-(6-chloro-4-(5H-pyrrolo[2,3-b]pyrazin-7-yl)pyridin-2-ylamino)cyclohexyl)cyclopropanecarboxamide] cannot be ordered by Ki: < 10 nM for the first, < 10 nM for the second.

`Clc1cc(-c2c[nH]c3nccnc23)cc(NC2CCCCC2)n1` [Example 1, 6-chloro-N-cyclohexyl-4-(5H-pyrrolo[3,2-b]pyrazin-7-yl)pyridin-2-amine] and `Clc1cc(-c2c[nH]c3nccnc23)cc(NC2CCCNC2)n1` (centres unmarked) [Example 3, 6-chloro-N-(piperidin-3-yl)-4-(5H-pyrrolo[2,3-b]pyrazin-7-yl)pyridin-2-amine] cannot be ordered by Ki: < 10 nM for the first, < 10 nM for the second.

`O[C@H]1CC[C@H](Nc2cc(-c3c[nH]c4nccnc34)cc(Cl)n2)CC1` [Example 2, Trans 4-(6-chloro-4-(5H-pyrrolo[3,2-b]pyrazin-7-yl)pyridin-2-ylamino)cyclohexanol] and `N[C@H]1CC[C@H](Nc2cc(-c3c[nH]c4nccnc34)cc(Cl)n2)CC1` [Example 7, Trans N^1-(6-chloro-4-(5H-pyrrolo[2,3-b]pyrazin-7-yl)pyridin-2-yl)cyclohexane-1,4-diamine] cannot be ordered by Ki: < 10 nM for the first, < 10 nM for the second.

`CCN1CCCC(Nc2cc(-c3c[nH]c4nccnc34)cc(Cl)n2)C1` (centres unmarked) [Example 4, 6-chloro-N-(1-ethylpiperidin-3-yl)-4-(5H-pyrrolo[2,3-b]pyrazin-7-yl)pyridin-2-amine] and `CS(=O)(=O)N1CCCC(Nc2cc(-c3c[nH]c4nccnc34)cc(Cl)n2)C1` (centres unmarked) [Example 6, 6-chloro-N-(1-(methylsulfonyl)piperidin-3-yl)-4-(5H-pyrrolo[2,3-b]pyrazin-7-yl)pyridin-2-amine] cannot be ordered by Ki: < 10 nM for the first, < 10 nM for the second.

`O=C(C1CC1)N1CCCC(Nc2cc(-c3c[nH]c4nccnc34)cc(Cl)n2)C1` (centres unmarked) [Example 5, (3-(6-chloro-4-(5H-pyrrolo[2,3-b]pyrazin-7-yl)pyridin-2-ylamino)piperidin-1-yl)(cyclopropyl)methanone] and `O=C(NC1CCCC(Nc2cc(-c3c[nH]c4nccnc34)cc(Cl)n2)C1)C1CC1` (centres unmarked) [Example 11, N-(3-(6-chloro-4-(5H-pyrrolo[2,3-b]pyrazin-7-yl)pyridin-2-ylamino)cyclohexyl)cyclopropanecarboxamide] cannot be ordered by Ki: < 10 nM for the first, < 10 nM for the second.

`CN(C)[C@H]1CC[C@H](Nc2cc(-c3c[nH]c4nccnc34)cc(Cl)n2)CC1` [Example 9, trans-N^1-(6-chloro-4-(5H-pyrrolo[2,3-b]pyrazin-7-yl)pyridin-2-yl)-N^4,N^4-dimethylcyclohexane-1,4-diamine] and `CN(C)C1CCCC(Nc2cc(-c3c[nH]c4nccnc34)cc(Cl)n2)C1` (centres unmarked) [Example 12, N^1-(6-chloro-4-(5H-pyrrolo[2,3-b]pyrazin-7-yl)pyridin-2-yl)-N^3,N^3-dimethylcyclohexane-1,3-diamine] cannot be ordered by Ki: < 10 nM for the first, < 10 nM for the second.

`CS(=O)(=O)N1CCCC(CNc2cc(-c3c[nH]c4nccnc34)cc(Cl)n2)C1` (centres unmarked) [Example 10, 6-chloro-N-((1-(methylsulfonyl)piperidin-3-yl)methyl)-4-(5H-pyrrolo[2,3-b]pyrazin-7-yl)pyridin-2-amine] and `CS(=O)(=O)NC1CCCC(Nc2cc(-c3c[nH]c4nccnc34)cc(Cl)n2)C1` (centres unmarked) [Example 13, N-(3-(6-chloro-4-(5H-pyrrolo[2,3-b]pyrazin-7-yl)pyridin-2-ylamino)cyclohexyl)methanesulfonamide] cannot be ordered by Ki: < 10 nM for the first, < 10 nM for the second.

`CCCCC(=O)Nc1cc(-c2c[nH]c3nccnc23)cc(Cl)n1` [Example 14, N-(6-chloro-4-(5H-pyrrolo[2,3-b]pyrazin-7-yl)pyridin-2-yl)pentanamide] and `CC(C)(CN)CNc1cc(-c2c[nH]c3nccnc23)cc(Cl)n1` [Example 19, N^1-(6-chloro-4-(5H-pyrrolo[2,3-b]pyrazin-7-yl)pyridin-2-yl)-2,2-dimethylpropane-1,3-diamine] cannot be ordered by Ki: < 10 nM for the first, < 10 nM for the second.

Compared with `O=C(Nc1cc(-c2c[nH]c3nccnc23)cc(Cl)n1)c1cccnc1` [Example 15, N-(6-chloro-4-(5H-pyrrolo[2,3-b]pyrazin-7-yl)pyridin-2-yl)nicotinamide], `O=C(Nc1cc(-c2c[nH]c3nccnc23)cc(Cl)n1)c1ccccc1` [Example 17, N-(6-chloro-4-(5H-pyrrolo[2,3-b]pyrazin-7-yl)pyridin-2-yl)benzamide] is higher in Ki: < 10 nM for the first, 10 to 100 nM for the second.

`O=C(Nc1cc(-c2c[nH]c3nccnc23)cc(Cl)n1)C1CCNCC1` [Example 16, N-(6-chloro-4-(5H-pyrrolo[2,3-b]pyrazin-7-yl)pyridin-2-yl)piperidine-4-carboxamide] and `CN(C)CC(=O)NC1CCCC(Nc2cc(-c3c[nH]c4nccnc34)cc(Cl)n2)C1` (centres unmarked) [Example 23, N-(3-(6-chloro-4-(5H-pyrrolo[2,3-b]pyrazin-7-yl)pyridin-2-ylamino)cyclohexyl)-2-(dimethylamino)acetamide] cannot be ordered by Ki: < 10 nM for the first, < 10 nM for the second.

Going from `Nc1cc(-c2c[nH]c3nccnc23)cc(Cl)n1` [Example 18, 6-chloro-4-(5H-pyrrolo[2,3-b]pyrazin-7-yl)pyridin-2-amine] to `Clc1cc(-c2c[nH]c3nccnc23)nc(NC2CCCCC2)n1` [Example 21, 4-chloro-N-cyclohexyl-6-(5H-pyrrolo[3,2-b]pyrazin-7-yl)pyrimidin-2-amine], the Ki rises from < 10 nM to > 100 nM.

`CCn1cc(-c2cc(Cl)nc(N[C@H]3CC[C@H](NC(=O)C4CC4)CC3)c2)c2nccnc21` [Example 22] and `CCn1cc(-c2cc(Cl)nc(NC3CCCC(NC(=O)CN(C)C)C3)c2)c2nccnc21` (centres unmarked) [Example 24] cannot be ordered by Ki: > 100 nM for the first, > 100 nM for the second.

For `O=S(=O)(NC1CCCC(Nc2cc(-c3c[nH]c4nccnc34)cc(Cl)n2)C1)c1ccco1` (centres unmarked) [Example 25, N-(3-(6-chloro-4-(5H-pyrrolo[2,3-b]pyrazin-7-yl)pyridin-2-ylamino)cyclohexyl)furan-2-sulfonamide], the Ki was < 10 nM.

Same assay, conditions: Table 2; same assay as example 26

`CCN1CCC(C(=O)N[C@H]2CC[C@H](Nc3cc(-c4c[nH]c5nccnc45)cc(Cl)n3)CC2)C1` (relative stereo) [Example 29, N-(trans-4-{[6-chloro-4-(5H-pyrrolo[2,3-b]pyrazin-7-yl)pyridin-2-yl]amino}cyclohexyl)-1-ethylpyrrolidine-3-carboxamide] and `C[C@@H](C(=O)N[C@H]1CC[C@H](Nc2cc(-c3c[nH]c4nccnc34)cc(Cl)n2)CC1)N(C)C` (relative stereo) [Example 32, N-(trans-4-{[6-chloro-4-(5H-pyrrolo[2,3-b]pyrazin-7-yl)pyridin-2-yl]amino}cyclohexyl)-N^2,N^2-dimethylalaninamide] cannot be ordered by Ki: < 10 nM for the first, < 10 nM for the second.

`CN1CCCC(Nc2cc(-c3c[nH]c4nccnc34)cc(Cl)n2)C1` (centres unmarked) [Example 27, 6-chloro-N-(1-methylpiperidin-3-yl)-4-(5H-pyrrolo[2,3-b]pyrazin-7-yl)pyridin-2-amine] and `CN1CCCC(CNc2cc(-c3c[nH]c4nccnc34)cc(Cl)n2)C1` (centres unmarked) [Example 28, 6-chloro-N-[(1-methylpiperidin-3-yl)methyl]-4-(5H-pyrrolo[2,3-b]pyrazin-7-yl)pyridin-2-amine] cannot be ordered by Ki: < 10 nM for the first, < 10 nM for the second.
